Measured values as given in PubChem BioAssay AID248 (DTP/NCI, 2004).
“And” between values parts separate entries of the source, which are not always exact repeats. Equal values may be shown once. Inconclusive results and toxic doses are left out. Cut-off read from the data, not from the text of the source: active = T/C of 150% or more; inactive = T/C below 125%.

System: L1210 leukemia ip in BDF1 mice, survival T/C
Assay: NCI In Vivo Anticancer Drug Screen. Data for tumor model L1210 Leukemia (intraperitoneal) in B6D2F1 (BDF1) mice
Settings: endpoint: mean survival time, higher = longer survival
How it was run: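 Mice bearing the transplanted tumor received compound or vehicle. Survival of the treated group was divided by that of the vehicle-treated control group to give the ratio.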

[1] = dose: 100.0 mg/kg/injection, schedule: Q04DX003 (ip), vehicle: Klucel (hydroxypropylcellulose) (HPC)
[2] = dose: 200.0 mg/kg/injection, schedule: Q04DX003 (ip), vehicle: Klucel (hydroxypropylcellulose) (HPC)
[3] = dose: 400.0 mg/kg/injection, schedule: Q04DX003 (ip), vehicle: Klucel (hydroxypropylcellulose) (HPC)
[4] = dose: 200.0 mg/kg/injection, schedule: Q01DX001 (ip), vehicle: carboxymethylcellulose (CMC)
[5] = dose: 100.0 mg/kg/injection, schedule: Q01DX009 (ip), vehicle: Klucel (hydroxypropylcellulose) (HPC)
[6] = dose: 200.0 mg/kg/injection, schedule: Q01DX009 (ip), vehicle: Klucel (hydroxypropylcellulose) (HPC)
[7] = dose: 400.0 mg/kg/injection, schedule: Q01DX009 (ip), vehicle: Klucel (hydroxypropylcellulose) (HPC)
[8] = dose: 50.0 mg/kg/injection, schedule: Q01DX009 (ip), vehicle: Klucel (hydroxypropylcellulose) (HPC)
[9] = dose: 100.0 mg/kg/injection, schedule: Q04DX003 (ip), vehicle: saline with Tween-80
[10] = dose: 200.0 mg/kg/injection, schedule: Q04DX003 (ip), vehicle: saline with Tween-80
[11] = dose: 100.0 mg/kg/injection, schedule: Q01DX001 (ip), vehicle: saline
[12] = dose: 200.0 mg/kg/injection, schedule: Q01DX001 (ip), vehicle: saline
[13] = dose: 100.0 mg/kg/injection, schedule: Q04DX003 (ip), vehicle: saline
[14] = dose: 200.0 mg/kg/injection, schedule: Q04DX003 (ip), vehicle: saline
[15] = dose: 400.0 mg/kg/injection, schedule: Q04DX003 (ip), vehicle: saline
[16] = dose: 50.0 mg/kg/injection, schedule: Q01DX001 (ip), vehicle: saline
[17] = dose: 400.0 mg/kg/injection, schedule: Q01DX001 (ip), vehicle: saline
[18] = dose: 100.0 mg/kg/injection, schedule: Q01DX009 (ip), vehicle: saline
[19] = dose: 200.0 mg/kg/injection, schedule: Q01DX009 (ip), vehicle: saline

Measured: T/C

COc1ccc(/C=C2\SC(=S)NC2=O)cc1OC
inactive: dose: 100.0 mg/kg/injection, schedule: Q01DX009 (ip), vehicle: saline sonified 96 % of control | [1] 98 % of control | dose: 200.0 mg/kg/injection, schedule: Q01DX009 (ip), vehicle: saline sonified 108 % of control | [2] 96 % of control | dose: 400.0 mg/kg/injection, schedule: Q01DX009 (ip), vehicle: saline sonified 94 % of control | [3] 96 % of control

CC(C#N)NCc1ccc2c(c1)OCO2 (stereo not drawn)
inactive: dose: 50.0 mg/kg/injection, schedule: Q01DX001 (ip), vehicle: carboxymethylcellulose (CMC) 112 % of control | [4] 96 % of control

CCN=C(c1ccc(NC(=O)c2ccc(C(=O)Nc3ccc(C(=NCC)N(CC)C(=O)NC)cc3)cc2)cc1)N(CC)C(=O)NC
inactive: dose: 6.25 mg/kg/injection, schedule: Q01DX015 (ip), vehicle: methylcellulose (MC) 93 % of control | dose: 12.5 mg/kg/injection, schedule: Q01DX015 (ip), vehicle: methylcellulose (MC) 100 % of control

CN(C(=O)/C=C/c1ccccc1)C1CCCCC1
inactive: [5] 101 % of control | [6] 110 % of control | [7] 111 % of control

Cc1ccc(C(=O)CC(Sc2ccccc2N)c2c(Cl)cccc2Cl)c(C)c1 (stereo not drawn)
inactive: [8] 94 % of control | dose: 100.0 mg/kg/injection, schedule: Q01DX005 (ip), vehicle: Klucel (hydroxypropylcellulose) (HPC) 108 % of control | [5] 94 % of control | dose: 100.0 mg/kg/injection, schedule: Q04DX002 (ip), vehicle: Klucel (hydroxypropylcellulose) (HPC) 98 % of control | dose: 200.0 mg/kg/injection, schedule: Q01DX005 (ip), vehicle: Klucel (hydroxypropylcellulose) (HPC) 89 % of control | [6] 91 % of control | dose: 200.0 mg/kg/injection, schedule: Q04DX002 (ip), vehicle: Klucel (hydroxypropylcellulose) (HPC) 109 % of control | dose: 400.0 mg/kg/injection, schedule: Q04DX002 (ip), vehicle: Klucel (hydroxypropylcellulose) (HPC) 117 % of control

O=C(O)c1cc(I)cc(I)c1
inactive: [9] 105 % of control | [10] 101 % of control | dose: 400.0 mg/kg/injection, schedule: Q04DX003 (ip), vehicle: saline with Tween-80 95 % of control

Clc1ncnc2c1nnn2C1CCCC1
inactive: [11] 101 % of control | [12] 104 % of control

CC(=O)C(=Cc1ccccc1)C(C)=O
inactive: [8] 97 % of control | [5] 87 % of control and 90 % of control | [1] 92 % of control | [13] 106 % of control | [6] 95 % of control | [2] 97 % of control | [14] 116 % of control | [7] 91 % of control | [3] 97 % of control | [15] 106 % of control

CCOC1(O)C(=O)c2ccccc2OC1(OCC)c1ccccc1 (stereo not drawn)
inactive: [16] 93 % of control | [11] 96 % of control | [12] 96 % of control | [17] 98 % of control

O=C(N/N=C/c1cccnc1)C(O)C(O)C(O)C(O)CO (stereo not drawn)
inactive: [11] 100 % of control | [12] 103 % of control | [17] 93 % of control

O=C1C=CC(=O)N1c1ccc2c(c1)Cc1ccccc1-2
inactive: dose: 50.0 mg/kg/injection, schedule: Q04DX003 (ip), vehicle: saline with Tween-80 98 % of control | [9] 108 % of control and 115 % of control | [10] 87 % of control

CCCCCCCCCCCCCCCCC1CCc2ccccc21 (stereo not drawn)
inactive: [16] 101 % of control | [11] 101 % of control | [12] 98 % of control | [17] 101 % of control

O=[N+]([O-])c1ccc(-c2nnc(-c3ccccc3O)o2)cc1
inactive: dose: 50.0 mg/kg/injection, schedule: Q04DX002 (ip), vehicle: saline with Tween-80 92 % of control | dose: 100.0 mg/kg/injection, schedule: Q04DX002 (ip), vehicle: saline with Tween-80 89 % of control | dose: 200.0 mg/kg/injection, schedule: Q04DX002 (ip), vehicle: saline with Tween-80 89 % of control | dose: 400.0 mg/kg/injection, schedule: Q04DX002 (ip), vehicle: saline with Tween-80 89 % of control

Cc1ccc2cc(O)ccc2c1
inactive: [11] 91 % of control | dose: 100.0 mg/kg/injection, schedule: Q04DX003 (ip), vehicle: acetone 90 % of control | [12] 96 % of control | dose: 200.0 mg/kg/injection, schedule: Q04DX003 (ip), vehicle: acetone 90 % of control | [17] 92 % of control

CCOC(=O)CN(C)C#N
inactive: [18] 101 % of control | [13] 92 % of control | [19] 101 % of control | [14] 92 % of control | dose: 400.0 mg/kg/injection, schedule: Q01DX009 (ip), vehicle: saline 92 % of control | [15] 91 % of control

CC(=C/c1ccccc1)/C=N/N=C(N)N
inactive: dose: 3.8 mg/kg/injection, schedule: Q01DX Z (ip), vehicle: saline 97 % of control | dose: 7.5 mg/kg/injection, schedule: Q01DX Z (ip), vehicle: saline 94 % of control | dose: 15.0 mg/kg/injection, schedule: Q01DX Z (ip), vehicle: saline 90 % of control

COc1ccc(Cl)cc1N=Cc1cccc([N+](=O)[O-])c1
inactive: [5] 102 % of control | [6] 94 % of control | [7] 94 % of control

CS(=O)(=O)c1nc(N)nc2nc[nH]c12
inactive: dose: 7.5 mg/kg/injection, schedule: Q01DX Z (ip), vehicle: methylcellulose (MC) 95 % of control | dose: 10.0 mg/kg/injection, schedule: Q01DX001 (ip), vehicle: carboxymethylcellulose (CMC) 101 % of control | dose: 12.5 mg/kg/injection, schedule: Q01DX009 (ip), vehicle: saline 109 % of control | dose: 15.0 mg/kg/injection, schedule: Q01DX Z (ip), vehicle: methylcellulose (MC) 115 % of control | dose: 25.0 mg/kg/injection, schedule: Q01DX009 (ip), vehicle: saline 100 % of control | dose: 30.0 mg/kg/injection, schedule: Q01DX Z (ip), vehicle: methylcellulose (MC) 117 % of control | [16] 95 % of control | dose: 50.0 mg/kg/injection, schedule: Q01DX009 (ip), vehicle: saline 102 % of control | dose: 50.0 mg/kg/injection, schedule: Q04DX003 (ip), vehicle: saline 98 % of control | dose: 60.0 mg/kg/injection, schedule: Q01DX Z (ip), vehicle: carboxymethylcellulose (CMC) 119 % of control | dose: 60.0 mg/kg/injection, schedule: Q01DX Z (ip), vehicle: methylcellulose (MC) 123 % of control | dose: 75.0 mg/kg/injection, schedule: Q01DX Z (ip), vehicle: methylcellulose (MC) 120 % of control | [11] 101 % of control | [18] 97 % of control | [13] 93 % of control | [4] 100 % of control | [12] 117 % of control | [19] 103 % of control | [14] 98 % of control

CN(C)CC(=O)CC12CC3CC(CC(C3)C1)C2
inactive: dose: 100.0 mg/kg/injection, schedule: Q04DX002 (ip), vehicle: saline 94 % of control | dose: 200.0 mg/kg/injection, schedule: Q04DX002 (ip), vehicle: saline 100 % of control | dose: 400.0 mg/kg/injection, schedule: Q04DX002 (ip), vehicle: saline 89 % of control
